ChEMBL document CHEMBL3421538, “Structure-activity relationships and molecular studies of novel arylpiperazinylalkyl purine-2,4-diones and purine-2,4,8-triones with antidepressant and anxiolytic-like activity” (Eur J Med Chem, 2015)
Activity calls are given as the source filed them. The rule behind the calls is not given here.

Columns and labels:
[1] = target: 5-hydroxytryptamine receptor 7 (Homo sapiens, UniProt P34969); assay: Displacement of [3H]LSD from human recombinant 5-HT7 receptor expressed in CHOK1 cells incubated for 60 mins by microbeta plate reader based method; type: cell-based, CHO-K1
[2] = target: T1, D(2) dopamine receptor (Homo sapiens, UniProt P14416); assay: Displacement of [3H]N-methylspiperone from human recombinant dopamine D2 receptor expressed in CHOK1 cells incubated for 60 mins by microbeta plate reader based method; type: cell-based, CHO-K1
[3] = Selectivity index, ratio of Ki for rat hippocampus 5-HT1A receptor to Ki for human recombinant 5-HT7 receptor
[4] = target: T2, 5-hydroxytryptamine receptor 6 (Homo sapiens, UniProt P50406); assay: Displacement of [3H]LSD from human recombinant 5-HT6 receptor expressed in HEK293 cells incubated for 60 mins by microbeta plate reader based method; type: cell-based
[5] = target: T3, 5-hydroxytryptamine receptor 1A (Homo sapiens) (UniProt P08908); assay: Agonist activity at human 5-HT1A receptor expressed in HEK293 cells assessed as stimulation of cAMP levels at 1 uM relative to 8-OH-DPAT; type: functional, cell-based
T3 sequence (whole entry): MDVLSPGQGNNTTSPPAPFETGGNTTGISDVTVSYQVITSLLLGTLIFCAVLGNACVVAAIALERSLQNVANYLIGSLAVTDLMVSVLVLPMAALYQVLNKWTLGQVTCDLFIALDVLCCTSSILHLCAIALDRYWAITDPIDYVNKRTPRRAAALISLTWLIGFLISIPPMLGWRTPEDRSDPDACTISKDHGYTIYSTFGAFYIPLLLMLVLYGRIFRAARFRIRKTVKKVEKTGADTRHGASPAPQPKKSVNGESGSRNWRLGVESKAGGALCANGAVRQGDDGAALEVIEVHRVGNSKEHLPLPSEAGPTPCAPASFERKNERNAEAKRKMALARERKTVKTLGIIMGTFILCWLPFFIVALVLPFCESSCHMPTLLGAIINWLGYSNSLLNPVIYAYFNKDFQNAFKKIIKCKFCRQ

[6] = target: T3, 5-hydroxytryptamine receptor 1A (Homo sapiens); assay: Agonist activity at human 5-HT1A receptor expressed in HEK293 cells assessed as stimulation of cAMP levels at 0.1 uM relative to 8-OH-DPAT; type: functional, cell-based
[7] = target: T1, D(2) dopamine receptor; assay: Agonist activity at human D2L receptor expressed in HEK293 cells assessed as stimulation of cAMP levels at 1 uM relative to dopamine; type: functional, cell-based
[8] = target: T1, D(2) dopamine receptor; assay: Agonist activity at human D2L receptor expressed in HEK293 cells assessed as stimulation of cAMP levels at 0.1 uM relative to dopamine; type: functional, cell-based
[9] = target: T3, 5-hydroxytryptamine receptor 1A (Homo sapiens); assay: Antagonist activity against human 5-HT1A receptor expressed in HEK293 cells assessed as inhibition of […]-induced cAMP levels at 1 uM; type: functional, cell-based
[10] = target: T3, 5-hydroxytryptamine receptor 1A (Homo sapiens); assay: Antagonist activity against human 5-HT1A receptor expressed in HEK293 cells assessed as inhibition of […]-induced cAMP levels at 0.1 uM; type: functional, cell-based
[11] = target: T1, D(2) dopamine receptor; assay: Antagonist activity against human dopamine D2L receptor expressed in HEK293 cells assessed as inhibition of […]-induced cAMP levels at 1 uM; type: functional, cell-based
[12] = target: T1, D(2) dopamine receptor; assay: Antagonist activity against human dopamine D2L receptor expressed in HEK293 cells assessed as inhibition of […]-induced cAMP levels at 0.1 uM; type: functional, cell-based
[13] = system: Mus musculus; assay: Antidepressant-like activity in Swiss mouse assessed as reduction in immobility time at 2.5 to 10 mg/kg, ip administered 60 mins before test; type: functional, organism-based
[14] = system: Mus musculus; assay: Antidepressant-like activity in Swiss mouse assessed as reduction in immobility time at 5 mg/kg, ip administered 60 mins before test; type: functional; parameters: scale not given: the % may be the effect or the level left; details: route intraperitoneal
[15] = system: Mus musculus; assay: Toxicity in Swiss mouse assessed as spontaneous locomotor activity at 2.5 to 10 mg/kg, ip measured during 2 to 6 mins; type: organism-based; parameters: route intraperitoneal; details: in vivo
[16] = system: Mus musculus; assay: Anxiolytic-like activity in Swiss mouse assessed as increase in number of punished crossings measured during 60 seconds period at 25 mg/kg, ip by four-plate test; type: functional; details: route intraperitoneal
[17] = system: Mus musculus; assay: Anxiolytic-like activity in Swiss mouse assessed as increase in number of punished crossings measured during 60 seconds period at 2.5 to 10 mg/kg, ip by four-plate test; type: functional, organism-based
[18] = system: Mus musculus; assay: Toxicity in Swiss mouse assessed as spontaneous locomotor activity at 2.5 to 10 mg/kg, ip; type: organism-based; parameters: dose 2.5-10 mg/kg, route intraperitoneal; details: in vivo
[19] = target: T4, 5-hydroxytryptamine receptor 1A (Rattus norvegicus, UniProt P19327); assay: Displacement of [3H]8-OH-DPAT from rat hippocampus 5-HT1A receptor incubated for 20 mins by microbeta plate reader based method
T4 sequence (P19327 whole entry): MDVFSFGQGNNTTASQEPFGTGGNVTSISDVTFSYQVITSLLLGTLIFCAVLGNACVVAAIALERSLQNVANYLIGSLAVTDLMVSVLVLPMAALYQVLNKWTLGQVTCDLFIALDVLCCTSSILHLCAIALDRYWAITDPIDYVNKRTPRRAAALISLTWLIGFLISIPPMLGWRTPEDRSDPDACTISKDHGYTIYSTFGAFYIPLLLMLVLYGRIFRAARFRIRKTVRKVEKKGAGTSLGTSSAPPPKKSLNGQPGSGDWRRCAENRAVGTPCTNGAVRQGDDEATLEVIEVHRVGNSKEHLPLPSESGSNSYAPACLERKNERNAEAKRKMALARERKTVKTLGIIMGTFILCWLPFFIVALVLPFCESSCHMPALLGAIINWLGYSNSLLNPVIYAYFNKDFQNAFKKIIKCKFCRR

[20] = system: Mus musculus; assay: Toxicity in Swiss mouse assessed as spontaneous locomotor activity at 5 to 20 mg/kg, ip measured during 2 to 6 mins; type: organism-based; parameters: route intraperitoneal; details: in vivo
[21] = system: Mus musculus; assay: Antidepressant-like activity in Swiss mouse assessed as reduction in immobility time at 10 mg/kg, ip administered 60 mins before test; type: functional; parameters: scale not given: the % may be the effect or the level left; details: route intraperitoneal
[22] = system: Mus musculus; assay: Anxiolytic-like activity in Swiss mouse assessed as increase in number of punished crossings measured during 60 seconds period at 2.5 mg/kg, ip by four-plate test; type: functional; details: route intraperitoneal
[23] = system: Mus musculus; assay: Anxiolytic-like activity in Swiss mouse assessed as increase in number of punished crossings measured during 60 seconds period at 0.625 to 10 mg/kg, ip by four-plate test; type: functional, organism-based
[24] = system: Mus musculus; assay: Toxicity in Swiss mouse assessed as spontaneous locomotor activity at 0.625 to 10 mg/kg, ip; type: organism-based; parameters: dose 0.625-10 mg/kg, route intraperitoneal; details: in vivo
[25] = target: T5, 5-hydroxytryptamine receptor 1A (Rattus norvegicus) (UniProt P19327); assay: Displacement of [3H]8-OH-DPAT from rat hippocampus 5-HT1A receptor assessed as total radioligand binding at 1 uM incubated for 20 mins by microbeta plate reader based method
T5 sequence (whole entry): T4 sequence (P19327 whole entry)

[26] = target: T5, 5-hydroxytryptamine receptor 1A (Rattus norvegicus); assay: Displacement of [3H]8-OH-DPAT from rat hippocampus 5-HT1A receptor assessed as total radioligand binding at 1.66 x 10^-7 M incubated for 20 mins by microbeta plate reader based method
[27] = target: T2, 5-hydroxytryptamine receptor 6; assay: Displacement of [3H]LSD from human recombinant 5-HT6 receptor expressed in HEK293 cells assessed as total radioligand binding at 1 uM incubated for 60 mins by microbeta plate reader based method; type: cell-based
[28] = target: T2, 5-hydroxytryptamine receptor 6; assay: Displacement of [3H]LSD from human recombinant 5-HT6 receptor expressed in HEK293 cells assessed as total radioligand binding at 1.66 x 10^-7 M incubated for 60 mins by microbeta plate reader based method; type: cell-based
[29] = target: D(3) dopamine receptor (Homo sapiens) (UniProt P35462); assay: Displacement of [3H]N-methylspiperone from dopamine D3 receptor (unknown origin) assessed as total radioligand binding at 1 uM incubated for 60 mins by microbeta plate reader based method
[30] = target: D(3) dopamine receptor (Homo sapiens) (UniProt P35462); assay: Displacement of [3H]N-methylspiperone from dopamine D3 receptor (unknown origin) assessed as total radioligand binding at 1.66 x 10^-7 M incubated for 60 mins by microbeta plate reader based method

T2 sequence (P50406 whole entry): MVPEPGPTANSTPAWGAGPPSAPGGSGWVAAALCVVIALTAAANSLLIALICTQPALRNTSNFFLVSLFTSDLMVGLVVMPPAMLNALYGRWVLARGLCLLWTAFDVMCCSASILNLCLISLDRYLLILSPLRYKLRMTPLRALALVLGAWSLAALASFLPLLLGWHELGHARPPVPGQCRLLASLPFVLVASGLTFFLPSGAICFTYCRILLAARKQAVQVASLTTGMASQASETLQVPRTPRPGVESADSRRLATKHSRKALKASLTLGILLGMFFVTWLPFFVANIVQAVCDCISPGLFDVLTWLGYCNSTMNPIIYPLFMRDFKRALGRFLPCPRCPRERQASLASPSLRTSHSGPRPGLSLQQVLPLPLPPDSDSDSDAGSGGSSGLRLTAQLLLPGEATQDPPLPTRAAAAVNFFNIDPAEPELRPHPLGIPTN
T1 sequence (P14416 whole entry): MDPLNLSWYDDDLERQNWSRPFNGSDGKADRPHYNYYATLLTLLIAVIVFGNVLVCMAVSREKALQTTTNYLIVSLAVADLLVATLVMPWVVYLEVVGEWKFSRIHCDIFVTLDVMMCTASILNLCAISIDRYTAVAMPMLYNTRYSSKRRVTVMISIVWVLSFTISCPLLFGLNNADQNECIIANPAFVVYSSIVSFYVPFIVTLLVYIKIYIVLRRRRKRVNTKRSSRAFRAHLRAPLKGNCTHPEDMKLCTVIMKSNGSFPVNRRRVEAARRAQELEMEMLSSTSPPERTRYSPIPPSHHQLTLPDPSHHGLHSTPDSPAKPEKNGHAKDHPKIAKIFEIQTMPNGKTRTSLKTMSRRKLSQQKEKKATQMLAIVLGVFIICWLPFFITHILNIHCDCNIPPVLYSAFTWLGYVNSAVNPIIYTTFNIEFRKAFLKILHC
Chain of 5-hydroxytryptamine receptor 7 (P34969 whole entry): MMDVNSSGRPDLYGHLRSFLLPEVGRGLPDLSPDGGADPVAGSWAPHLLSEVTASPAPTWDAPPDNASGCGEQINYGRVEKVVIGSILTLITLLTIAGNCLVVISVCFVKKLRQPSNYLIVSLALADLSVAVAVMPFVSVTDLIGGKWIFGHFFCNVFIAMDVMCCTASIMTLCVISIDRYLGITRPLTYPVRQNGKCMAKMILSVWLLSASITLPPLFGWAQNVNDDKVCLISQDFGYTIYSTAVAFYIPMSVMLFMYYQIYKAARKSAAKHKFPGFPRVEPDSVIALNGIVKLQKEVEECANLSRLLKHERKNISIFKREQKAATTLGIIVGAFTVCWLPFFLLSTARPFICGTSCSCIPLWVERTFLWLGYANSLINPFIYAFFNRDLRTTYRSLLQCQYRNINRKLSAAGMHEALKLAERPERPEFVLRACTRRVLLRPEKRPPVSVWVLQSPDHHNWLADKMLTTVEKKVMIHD
Chain of D(3) dopamine receptor (Homo sapiens) (P35462 whole entry): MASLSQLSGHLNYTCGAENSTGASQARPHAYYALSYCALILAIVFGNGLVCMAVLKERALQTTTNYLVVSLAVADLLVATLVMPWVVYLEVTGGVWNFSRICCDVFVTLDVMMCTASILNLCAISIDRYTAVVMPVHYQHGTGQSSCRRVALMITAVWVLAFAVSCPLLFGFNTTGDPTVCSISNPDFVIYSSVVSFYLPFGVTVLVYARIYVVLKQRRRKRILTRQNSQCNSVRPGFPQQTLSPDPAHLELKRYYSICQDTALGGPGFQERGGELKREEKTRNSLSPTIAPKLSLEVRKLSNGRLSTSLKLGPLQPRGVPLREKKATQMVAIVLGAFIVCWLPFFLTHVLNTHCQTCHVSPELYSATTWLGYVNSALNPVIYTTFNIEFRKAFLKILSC

Structure (SMILES)	Ki [1] [nM]	Ki [2] [nM]	Ki [4] [nM]	Activity [5] [%]	Activity [6] [%]	Activity [7] [%]	Activity [8] [%]	inhibition [9] [%]	inhibition [10] [%]	inhibition [11] [%]	inhibition [12] [%]	Activity [13]	Activity [15]	Ki [19] [nM]	also measured
Cc1cn2c3c(=O)n(C)c(=O)n(C)c3nc2n1CCCCCN1CCN(c2ccc(Cl)c(Cl)c2)CC1	111	59	405	18.7	2.3	10	0.8	87.6	92.9	55.9	20.9	Active	Non-toxic	22	Ratio Ki [3]: 0.19; Activity [14]: 25%; Activity [16]: 124%; Activity [17]: Active; Activity [18]: Non-toxic
CN(C)CCCN1c2ccccc2CCc2ccccc21.Cl [IMIPRAMINE HYDROCHLORIDE]															Activity [20]: Non-toxic
Cc1cccc(N2CCN(CCCCn3c(C)cn4c5c(=O)n(C)c(=O)n(C)c5nc34)CC2)c1C	381	27	510	61.5	55.7	37.6	35.3	105	102	73.8	38.4	Active	Non-toxic	< 1	Activity [21]: 20%; Activity [22]: 67%; Activity [23]: Active; Activity [24]: Non-toxic; Activity [25]: 42%; Activity [26]: 75%; Activity [27]: 68%; Activity [28]: 81%; Activity [29]: 34%; Activity [30]: 43%
